Laboratory results: patent publication US20230056497A1, “CD206 Modulators Their Use and Methods for Preparation” (The United States of America, As Represented by the …, priority 2019, published 2023)
pIC50: −log10 of the molar value. Like-named read-outs stand apart in the source and are kept apart here. Each block holds one molecule with its values, some of them ahead of it.

Key:
[1] = system: M2 macrophages; experiment: Anti-cell viability screening: reduction of M2 macrophage cell viability (Percentage Relative Cell Viability versus Log Molar Concentration); type: cell-based; conditions: for pIC50 / M2 Selectivity: Table 2; for pIC50: read-out: IC50; for IC50: figure legends and text, read-out: IC50, macrophage activity (Percentage Relative Cell Viability versus Log Molar Concentration) (converted)
Experimental: Assays were conducted in a 96-well black solid-bottom plate with a final assay volume of 100 μL.

[2] = system: M2 polarized macrophages with intact CD206 (wild type) versus isogenic M2 polarized macrophages lacking the CD206 receptor; experiment: Cell viability in M2 polarized macrophages with intact CD206 versus isogenic macrophages lacking CD206; type: cell-based
[3] = Pharmacokinetics (PK) profile, plasma concentration versus time; type: in vivo
[4] = target: T1, recombinant human CD206 protein (UniProt ID P22897-1) (Homo sapiens, UniProt P22897); experiment: Electron microscopy of recombinant CD206 incubated with compound, particles scored closed versus open; type: binding; conditions: 30 minutes at 1 μM
T1 sequence (P22897 19-1456): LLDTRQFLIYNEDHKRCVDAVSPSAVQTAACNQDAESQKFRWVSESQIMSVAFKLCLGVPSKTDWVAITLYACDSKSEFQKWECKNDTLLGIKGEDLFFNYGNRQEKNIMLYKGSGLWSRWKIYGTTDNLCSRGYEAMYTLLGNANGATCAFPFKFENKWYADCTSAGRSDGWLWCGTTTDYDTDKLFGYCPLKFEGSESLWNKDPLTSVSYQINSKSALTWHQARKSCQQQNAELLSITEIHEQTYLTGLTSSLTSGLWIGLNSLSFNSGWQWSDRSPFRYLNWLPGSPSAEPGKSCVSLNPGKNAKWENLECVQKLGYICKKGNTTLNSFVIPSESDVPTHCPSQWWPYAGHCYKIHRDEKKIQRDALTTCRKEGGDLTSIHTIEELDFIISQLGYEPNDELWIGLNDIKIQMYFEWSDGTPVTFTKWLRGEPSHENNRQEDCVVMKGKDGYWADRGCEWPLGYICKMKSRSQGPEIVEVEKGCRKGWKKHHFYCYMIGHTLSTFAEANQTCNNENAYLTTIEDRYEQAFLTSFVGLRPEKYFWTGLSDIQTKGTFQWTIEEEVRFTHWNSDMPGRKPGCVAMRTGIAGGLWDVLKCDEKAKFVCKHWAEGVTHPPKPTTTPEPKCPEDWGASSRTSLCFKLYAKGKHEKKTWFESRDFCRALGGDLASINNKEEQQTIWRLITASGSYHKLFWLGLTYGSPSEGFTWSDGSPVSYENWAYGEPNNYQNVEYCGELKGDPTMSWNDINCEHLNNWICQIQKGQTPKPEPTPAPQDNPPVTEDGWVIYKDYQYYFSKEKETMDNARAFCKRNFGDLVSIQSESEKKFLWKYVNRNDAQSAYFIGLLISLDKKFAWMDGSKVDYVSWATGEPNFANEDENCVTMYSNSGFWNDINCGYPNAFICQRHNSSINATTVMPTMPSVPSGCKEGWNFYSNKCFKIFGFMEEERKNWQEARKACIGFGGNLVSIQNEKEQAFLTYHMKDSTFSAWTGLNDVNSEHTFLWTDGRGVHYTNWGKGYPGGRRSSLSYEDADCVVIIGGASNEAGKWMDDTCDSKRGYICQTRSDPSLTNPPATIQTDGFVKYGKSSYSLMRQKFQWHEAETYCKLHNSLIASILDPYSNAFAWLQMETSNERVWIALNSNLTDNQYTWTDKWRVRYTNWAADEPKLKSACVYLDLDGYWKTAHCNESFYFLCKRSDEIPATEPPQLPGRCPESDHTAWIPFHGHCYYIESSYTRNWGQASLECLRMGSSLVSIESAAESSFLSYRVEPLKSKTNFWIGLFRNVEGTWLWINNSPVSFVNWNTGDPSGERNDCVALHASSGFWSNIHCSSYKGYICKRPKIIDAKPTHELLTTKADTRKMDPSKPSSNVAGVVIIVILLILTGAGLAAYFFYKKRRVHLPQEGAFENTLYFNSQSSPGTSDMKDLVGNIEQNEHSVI
Experimental: FIGS. 11A and 11B illustrate conformational change on CD206 when incubated with Compound 1.

[5] = system: Kras(G12D)/Trp53(R172H)/Pdx-1-Cre (KPC) mice (murine pancreatic cancer model); experiment: In vivo testing in transgenic KPC mice, tumor growth; conditions: compared to vehicle
Text: Tumor growth was suppressed during in vivo testing of Compound 1 in fully immune-competent transgenic Kras(G12D)/Trp53(R172H)/Pdx-1-Cre (KPC) mice (murine pancreatic cancer model) compared to vehicle as shown in FIG. 3B. This point was further illustrated in FIGS. 3A and 3C where comparison of tumor volume for mice treated with Compound-1 and untreated mice (vehicle) is shown.

[6] = system: KPC tumors; experiment: Quantitative flow cytometry of autochthonous KPC tumors (intratumoral immune landscape); type: in vivo, mice
[7] = system: KPC allograft tumors grown in C57BL/6 mice; experiment: M2 macrophages adaptive transfer study in KPC allograft model; type: in vivo; conditions: intratumoral injections 3 times a week, compared to vehicle
[8] = system: murine M1 macrophages and M2 macrophages; experiment: Induction of phagocytosis, autophagy and apoptosis in bone marrow derived macrophages (BMDM), M1 versus M2, relative fluorescence; type: cell-based
Text: (§1) Induction of phagocytosis, autophagy, and apoptosis was studied in two in vitro models using M1 and M2 macrophages. […] FIGS. 12A to 12E illustrate this selectivity. […] FIGS. 13A to 13C illustrate this selectivity

[9] = system: RAW264.7 macrophages polarized into M1 and M2; experiment: Induction of phagocytosis, autophagy and apoptosis in RAW264.7 macrophages polarized into M1 and M2; type: cell-based, murine
Text: as §1

[10] = system: M2 macrophages; experiment: Cancer cell phagocytosis by M1 and M2 macrophages, relative quantitative fluorescence; type: cell-based; conditions: M2 versus M1 macrophages
Text: FIGS. 14A to 14B illustrate this selectivity towards M2 macrophages.

[11] = system: human CD206^high M2 macrophages; experiment: Cell viability assay of human macrophages; type: cell-based; conditions: derived from healthy volunteers, compared to M1-like macrophages
Text: (§2) Similar selectivity is observed in dendritic cell DC2.4 viability (FIG. 9B), fibroblast HTT viability (FIG. 9C), RAW cell viability (FIG. 9D), and KPC viability (FIG. 9E).

[12] = system: CD206 negative control cell lines (DC2.4, fibroblast HTT, non-polarized RAW264.7, KPC cancer cells); experiment: Cell viability in a panel of CD206 negative control cell lines; type: cell-based
Text: as §2

[13] = system: murine M2 macrophages; experiment: M1 markers in murine M2 macrophages by quantitative flow cytometry; type: cell-based; conditions: 20 μM for 2 hours
[14] = CD11b+F4/80+Gr-1 negative cells

concentration at 0.157 h ([3]; IP (intraperitoneal), 20 mg/kg): 7890 nM
concentration at 0.5 h ([3]; IP (intraperitoneal), 20 mg/kg): 7600 nM
concentration at 1 h ([3]; IP (intraperitoneal), 20 mg/kg): 11100 nM
concentration at 1.5 h ([3]; IP (intraperitoneal), 20 mg/kg): 12800 nM
concentration at 2 h ([3]; IP (intraperitoneal), 20 mg/kg): 5840 nM
concentration at 4 h ([3]; IP (intraperitoneal), 20 mg/kg): 3020 nM
concentration at 7 h ([3]; IP (intraperitoneal), 20 mg/kg, 7.0 h): 540 nM
concentration at 0.157 h ([3]; PO (Per Os, oral), 30 mg/kg): 11 nM
concentration at 0.5 h ([3]; PO (Per Os, oral), 30 mg/kg): 16 nM
concentration at 1 h ([3]; PO (Per Os, oral), 30 mg/kg): 23 nM
concentration at 1.5 h ([3]; PO (Per Os, oral), 30 mg/kg): 190 nM
concentration at 2 h ([3]; PO (Per Os, oral), 30 mg/kg): 163 nM
concentration at 4 h ([3]; PO (Per Os, oral), 30 mg/kg): 11 nM
PK profile ([3]; liver, and pancreas, oral and IP injection): excellent PK profile
CD206 particles in a closed state [4]: 48%
CD206 particles in open state [4]: 52%
Structure (SMILES): O=C(NCCc1cnc[nH]1)c1ccc(-c2ncc3cnc(-c4ccccc4)cn23)cc1 [Compound 1, N-(2-(1H-imidazol-5-yl)ethyl)-4-(6-phenylimidazo[1,5-a]pyrazin-3-yl)benzamide]
pIC50 ([1]; Macrophage): 5.54
IC50 ([1]; Macrophage): 2.86 µM
M2 Selectivity [1]: Yes
CD206 dependence of macrophage activity [2]: CD206 dependent
binding to CD206 and conformation of the receptor [4]: binds to CD206 and induces a conformational switch of the receptor
binding to CD206 and conformation of the receptor ([4]; listed as Example 38): induces the closed conformation of the CD206 receptor
Tumor growth [5]: suppressed
CD206 positive cells within tumor associated macrophage population [6, 14]: reduction of CD206 positive cells
Signal regulatory protein α (SIRPα) of tumor associated macrophages [6, 14]: reduction of the innate checkpoint Signal regulatory protein α (SIRPα)
CD206 macrophages in tumors (percent positive cell fractions of total cells) ([6]; compared to vehicle): reduction of CD206 macrophages
M2 to M1 macrophage shift in tumors ([6]; compared to vehicle): shift from CD206^high M2 to CD86-positive M1 macrophages
intratumoral CD8 cells ([6]; compared to vehicle): increase in intratumoral CD8 cells
M1 markers in intratumoral M1 and M2 macrophage populations ([6]; treatment for three weeks in KPC mice, compared to vehicle): induction of M1 markers
Tumor growth after intratumoral injection of pretreated M2 macrophages [7]: reduction of tumor
selectivity to induce phagocytosis, autophagy, and apoptosis ([8]; BMDM in vitro model): excellent selectivity to induce phagocytosis, autophagy, and apoptosis in M2 but not in M1 macrophages
induction of apoptosis ([8]; M1 versus M2): induces apoptosis in M2 but not in M1 macrophages
induction of autophagy ([8]; M1 versus M2): induces autophagy in M2 but not in M1 macrophages
induction of early phagocytosis ([8]; M1 versus M2): induces early phagocytosis in M2 but not in M1 macrophages
induction of phagocytosis ([8]; M1 versus M2): induces phagocytosis in M2 but not in M1 macrophages
induction of phagolysosome formation ([8]; M1 versus M2): induces phagolysosome formation in M2 but not in M1 macrophages
dose response in induction of phagocytosis ([8]; murine M2 macrophages treated for 24 hours): full dose response
selectivity to induce phagocytosis, autophagy, and apoptosis ([9]; RAW264.7 cell in vitro model): excellent selectivity to induce phagocytosis, autophagy, and apoptosis in M2 but not in M1 macrophages
induction of apoptosis ([9]; compared to vehicle): induces apoptosis in M2 macrophages
induction of autophagy ([9]; compared to vehicle): induces autophagy in M2 macrophages
induction of phagocytosis ([9]; compared to vehicle): induces phagocytosis in M2 macrophages
cancer cell phagocytosis [10]: increases cancer cell phagocytosis in M2 but not in M1 macrophages
activity in human CD206^high M2 macrophages [11]: active
selectivity versus CD206 negative control cell lines [12]: selective for the CD206^high M2 macrophages
M1 markers (percent positive cell fractions) [13]: induction of M1 markers in M2 macrophages

Structure (SMILES): O=C(c1cc2ccccc2[nH]1)N1CCc2c(n(Cc3cccnc3)n(CCc3ccccc3)c2=O)C1 [Compound 2]
pIC50 ([1]; Macrophage): 5.34
M2 Selectivity [1]: Yes
CD206 dependence of macrophage activity [2]: CD206 dependent
M1 markers (percent positive cell fractions) [13]: induction of M1 markers in M2 macrophages

Structure (SMILES): CC(=O)c1c(C)oc2ccc(N(C(=O)Oc3ccccc3)[S+](=O)(O)c3ccccc3)cc12 [Compound 3]
pIC50 ([1]; Macrophage): 5.41
M2 Selectivity [1]: Yes
CD206 dependence of macrophage activity [2]: CD206 dependent

Structure (SMILES): O=C(NCCN1CCOCC1)c1ccc(-c2ncc3cnc(-c4ccccc4)cn23)cc1 [Compound 4, N-(2-Morpholinoethyl)-4-(6-phenylimidazo[1,5-a]pyrazin-3-yl)benzamide]
IC50 ([1]; Macrophage): 8.95 µM

Structure (SMILES): CC(=O)Nc1ccc(NC(=O)c2ccc(-c3ncc4cnc(-c5ccccc5)cn34)cc2)cc1 [Compound 5, N-(4-acetamidophenyl)-4-(6-phenylimidazo[1,5-a]pyrazin-3-yl)benzamide]
IC50 ([1]; Macrophage): 7.36 µM

Structure (SMILES): O=C(NCCCn1ccnc1)c1ccc(-c2ncc3cnc(-c4ccccc4)cn23)cc1 [Compound 6, N-(3-(1H-imidazol-1-yl)propyl)-4-(6-phenylimidazo[1,5-a]pyrazin-3-yl)benzamide]
IC50 ([1]; Macrophage): 3.85 µM

Structure (SMILES): CN(C)CCNC(=O)c1ccc(-c2ncc3cnc(-c4ccccc4)cn23)cc1 [Compound 7, N-(2-(dimethylamino)ethyl)-4-(6-phenylimidazo[1,5-a]pyrazin-3-yl)benzamide]
IC50 ([1]; Macrophage): 3.13 µM

Structure (SMILES): NC(=O)c1ccc(-c2ncc3cnc(-c4cccc(F)c4)cn23)cc1 [Compound 8, 4-(6-(3-fluorophenyl)imidazo[1,5-a]pyrazin-3-yl)benzamide]
IC50 ([1]; Macrophage): 0.45 µM

Structure (SMILES): O=C(NCCCO)c1ccc(-c2ncc3cnc(-c4cccc(F)c4)cn23)cc1 [Compound 9, 4-(6-(3-fluorophenyl)imidazo[1,5-a]pyrazin-3-yl)-N-(3-hydroxypropyl)benzamide]
IC50 ([1]; Macrophage): 0.73 µM

Structure (SMILES): CC(=O)NCCNC(=O)c1ccc(-c2ncc3cnc(-c4cccc(F)c4)cn23)cc1 [Compound 10, N-(2-acetamidoethyl)-4-(6-(3-fluorophenyl)imidazo[1,5-a]pyrazin-3-yl)benzamide]
IC50 [1]: 5.45 µM

Structure (SMILES): O=C(NCCCN1CCCC1=O)c1ccc(-c2ncc3cnc(-c4ccccc4)cn23)cc1 [Compound 28, N-(3-(2-oxopyrrolidin-1-yl)propyl)-4-(6-phenylimidazo[1,5-a]pyrazin-3-yl)benzamide]
cancer cell phagocytosis [10]: increases cancer cell phagocytosis in M2 but not in M1 macrophages
